The experiment concerns the target Intermediate conductance calcium-activated potassium channel protein 4 (Homo sapiens, UniProt O15554). In words: Inhibition of Kca3.1 in human erythrocytes. It is filed as cell-based.

Molecules are shown by their SMILES. pIC50: −log10 of the molar value.

Chain of Intermediate conductance calcium-activated potassium channel protein 4 (O15554 whole entry): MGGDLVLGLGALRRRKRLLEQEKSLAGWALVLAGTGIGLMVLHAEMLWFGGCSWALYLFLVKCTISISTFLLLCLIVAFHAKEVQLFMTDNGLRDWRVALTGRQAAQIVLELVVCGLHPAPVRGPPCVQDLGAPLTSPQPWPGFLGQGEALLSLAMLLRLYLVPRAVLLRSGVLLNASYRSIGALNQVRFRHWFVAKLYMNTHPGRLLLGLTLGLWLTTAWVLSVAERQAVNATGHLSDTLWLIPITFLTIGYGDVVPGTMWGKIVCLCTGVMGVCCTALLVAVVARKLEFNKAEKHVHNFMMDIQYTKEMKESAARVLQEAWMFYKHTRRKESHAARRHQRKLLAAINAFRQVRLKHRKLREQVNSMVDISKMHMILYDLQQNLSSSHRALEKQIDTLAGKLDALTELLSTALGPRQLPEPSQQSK

Turning to `COC(=O)N(CC(C)(C)N)C1(c2ccc(F)c(C(F)(F)F)c2)CC1`, the pIC50 (usually the negative decadic logarithm of the IC50, by convention in mol/L) is 8.07.

As to `COC(=O)N(C[C@H]1CCCN1C)C1(c2ccc(F)c(C(F)(F)F)c2)CC1`, the pIC50 was 8.09.

On to `COC(=O)N(C[C@@H]1CCCN1)C1(c2ccc(F)c(OC(F)(F)F)c2)CC1`, for which the negative logarithm of the IC50 (pIC50) was 8.06.

Source of the values: ChEMBL document CHEMBL4665906, “Novel Potassium Channel Inhibitors” (ACS Med Chem Lett, 2020).
